From PMC10578927, “An unconventional gatekeeper mutation sensitizes inositol hexakisphosphate kinases to an allosteric inhibitor” (eLife, 2023)

Molecular target: T1, IP6KA^M85V (Entamoeba histolytica, UniProt N9UNA8, M85V)
T1 sequence (N9UNA8 1-270 M85V): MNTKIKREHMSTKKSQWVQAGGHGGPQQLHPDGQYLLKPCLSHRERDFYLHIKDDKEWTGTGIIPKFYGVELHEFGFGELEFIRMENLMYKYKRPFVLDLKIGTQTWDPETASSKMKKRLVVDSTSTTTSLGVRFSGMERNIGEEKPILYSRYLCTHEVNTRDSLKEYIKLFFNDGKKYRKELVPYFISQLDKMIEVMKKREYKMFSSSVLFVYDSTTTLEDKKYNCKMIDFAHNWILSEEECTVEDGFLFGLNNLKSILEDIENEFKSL
Assay: NMR activity assay for EhIP6KA constructs
Format: biochemical

O=C(O)c1ccc2c(c1)C(=O)N(c1ccc(-c3nc4ccc(N5C(=O)c6ccc(C(=O)O)cc6C5=O)cc4[nH]3)cc1)C2=O [FMP-201300]
IC50: 780 nM
